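Where inhibition never reached the appropriate level, the endpoint shown equals the highest concentration tested. Otherwise, values were interpolated linearly from a five-concentration, 48-hour dose response in 96-well plates. GI50: concentration for 50% inhibition of growth.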 Activity calls are given as the source filed them. Cut-off read from the data, not from the text of the source: active = GI50 up to about 1.1 µM and inactive = higher.
Columns and labels:
Assay in all cases: DTP human tumour cell line panel, 48 h
[1] = test system: ACHN
[2] = test system: SNB-75
[3] = test system: COLO 205
[4] = test system: 786-0
[5] = test system: HT-29
[6] = test system: HCT-116
[7] = test system: OVCAR-5
[8] = test system: TK-10
[9] = test system: HCT-15
[10] = test system: PC-3
[11] = test system: SR
[12] = test system: SN12C
[13] = test system: EKVX
[14] = test system: SF-268
[15] = test system: MDA-N
[16] = test system: MDA-MB-231
[17] = test system: NCI-H23
[18] = test system: K562
[19] = test system: IGROV-1
[20] = test system: CAKI-1
[21] = test system: RPMI-8226
[22] = test system: RXF 393
[23] = test system: SF-539
[24] = test system: HOP-92
[25] = test system: NCI-H226
[26] = test system: A549
[27] = test system: SK-MEL-2
[28] = test system: HL-60
[29] = test system: UACC-62
[30] = test system: SF-295
[31] = test system: UO-31
[32] = test system: Malme-3M
[33] = test system: MOLT-4
[34] = test system: MDA-MB-435
[35] = test system: M14
[36] = test system: NCI-H460
[37] = test system: SW-620
[38] = test system: UACC-257
[39] = test system: SK-OV-3
[40] = test system: SNB-19
[41] = test system: KM12
[42] = test system: SK-MEL-5
[43] = test system: MCF7
[44] = test system: NCI-H522
[45] = test system: T47D
[46] = test system: OVCAR-8
[47] = test system: BT-549
[48] = test system: U-251
[49] = test system: Hs-578T
[50] = test system: DU-145
[51] = test system: NCI/ADR-RES
[52] = test system: HOP-62
[53] = test system: OVCAR-4
[54] = test system: CCRF-CEM
[55] = test system: HCC 2998
[56] = test system: OVCAR-3
[57] = test system: SK-MEL-28
[58] = test system: LOX IMVI

CCCC(CCC(=O)O)(CCC(=O)O)[N+](=O)[O-]
GI50 [1]: > 100 µM (inactive) | GI50 [2]: > 100 µM (inactive) | GI50 [3]: > 100 µM (inactive) | GI50 [4]: > 100 µM (inactive) | GI50 [5]: > 100 µM (inactive) | GI50 [6]: > 100 µM (inactive) | GI50 [7]: > 100 µM (inactive) | GI50 [8]: > 100 µM (inactive) | GI50 [9]: > 100 µM | GI50 [10]: > 100 µM (inactive) | GI50 [11]: > 100 µM (inactive) | GI50 [12]: > 100 µM (inactive) | GI50 [13]: > 100 µM (inactive) | GI50 [14]: > 100 µM (inactive) | GI50 [15]: > 100 µM (inactive) | GI50 [16]: > 100 µM (inactive) | GI50 [17]: > 100 µM (inactive) | GI50 [18]: > 100 µM (inactive) | GI50 [19]: > 100 µM (inactive) | GI50 [20]: > 100 µM (inactive) | GI50 [21]: > 100 µM (inactive) | GI50 [22]: > 100 µM (inactive) | GI50 [23]: > 100 µM (inactive) | GI50 [24]: > 100 µM (inactive) | GI50 [25]: > 100 µM (inactive) | GI50 [26]: > 100 µM (inactive) | GI50 [27]: > 100 µM (inactive) | GI50 [28]: > 100 µM (inactive) | GI50 [29]: > 100 µM (inactive) | GI50 [30]: > 100 µM (inactive) | GI50 [31]: > 100 µM (inactive) | GI50 [32]: > 100 µM (inactive) | GI50 [33]: > 100 µM (inactive) | GI50 [34]: > 100 µM (inactive) | GI50 [35]: > 100 µM (inactive) | GI50 [36]: > 100 µM (inactive) | GI50 [37]: > 100 µM (inactive) | GI50 [38]: > 100 µM (inactive) | GI50 [39]: > 100 µM (inactive) | GI50 [40]: > 100 µM (inactive) | GI50 [41]: > 100 µM (inactive) | GI50 [42]: > 100 µM (inactive) | GI50 [43]: > 100 µM (inactive) | GI50 [44]: > 100 µM (inactive) | GI50 [45]: > 100 µM (inactive) | GI50 [46]: > 100 µM (inactive) | GI50 [47]: > 100 µM (inactive) | GI50 [48]: > 100 µM (inactive) | GI50 [49]: > 100 µM (inactive) | GI50 [50]: > 100 µM (inactive) | GI50 [51]: > 100 µM (inactive)

C=CC(=C)CCC(Br)C(C)(C)Br (stereo not drawn)
GI50 [1]: > 100 µM (inactive) | GI50 [2]: > 100 µM (inactive) | GI50 [3]: 74 µM (inactive) | GI50 [52]: > 100 µM (inactive) | GI50 [4]: 99.1 µM (inactive) | GI50 [5]: > 100 µM (inactive) | GI50 [6]: 54.3 µM (inactive) | GI50 [53]: > 100 µM (inactive) | GI50 [7]: > 100 µM (inactive) | GI50 [8]: > 100 µM (inactive) | GI50 [9]: > 100 µM | GI50 [10]: > 100 µM (inactive) | GI50 [11]: > 100 µM (inactive) | GI50 [54]: 22.2 µM (inactive) | GI50 [12]: > 100 µM (inactive) | GI50 [13]: > 100 µM (inactive) | GI50 [14]: > 100 µM (inactive) | GI50 [15]: > 100 µM (inactive) | GI50 [16]: 4.51 µM (inactive) | GI50 [17]: > 100 µM (inactive) | GI50 [18]: 40.3 µM (inactive) | GI50 [19]: 80.7 µM (inactive) | GI50 [21]: 88.1 µM (inactive) | GI50 [22]: > 100 µM (inactive) | GI50 [55]: > 100 µM (inactive) | GI50 [23]: > 100 µM (inactive) | GI50 [24]: 91.2 µM (inactive) | GI50 [25]: > 100 µM (inactive) | GI50 [26]: > 100 µM (inactive) | GI50 [27]: > 100 µM (inactive) | GI50 [28]: 17.1 µM (inactive) | GI50 [29]: > 100 µM (inactive) | GI50 [30]: > 100 µM (inactive) | GI50 [31]: > 100 µM (inactive) | GI50 [32]: 41.2 µM (inactive) | GI50 [33]: 15.6 µM (inactive) | GI50 [56]: > 100 µM (inactive) | GI50 [34]: > 100 µM (inactive) | GI50 [35]: 75.9 µM (inactive) | GI50 [36]: > 100 µM (inactive) | GI50 [37]: 32.4 µM (inactive) | GI50 [38]: > 100 µM (inactive) | GI50 [39]: > 100 µM (inactive) | GI50 [57]: > 100 µM (inactive) | GI50 [40]: > 100 µM (inactive) | GI50 [41]: > 100 µM (inactive) | GI50 [42]: > 100 µM (inactive) | GI50 [43]: 35.1 µM (inactive) | GI50 [44]: 15.7 µM (inactive) | GI50 [45]: 66.2 µM (inactive) | GI50 [46]: > 100 µM (inactive) | GI50 [47]: > 100 µM (inactive) | GI50 [48]: > 100 µM (inactive) | GI50 [49]: > 100 µM (inactive) | GI50 [50]: > 100 µM (inactive) | GI50 [51]: > 100 µM (inactive)

O=C(Oc1cccc(Cl)c1)c1cc2cc(CCl)ccc2oc1=O
GI50 [1]: 17.6 µM (inactive) | GI50 [2]: 31.4 µM (inactive) | GI50 [3]: 20.7 µM (inactive) | GI50 [52]: 42.9 µM (inactive) | GI50 [4]: 41.8 µM (inactive) | GI50 [5]: 30.5 µM (inactive) | GI50 [6]: 61.5 µM (inactive) | GI50 [53]: 41.5 µM (inactive) | GI50 [7]: > 100 µM (inactive) | GI50 [8]: 32.1 µM (inactive) | GI50 [9]: 88.3 µM | GI50 [10]: 26.1 µM (inactive) | GI50 [11]: 63.8 µM (inactive) | GI50 [12]: 48.9 µM (inactive) | GI50 [13]: 44.4 µM (inactive) | GI50 [14]: 80 µM (inactive) | GI50 [15]: 24.5 µM (inactive) | GI50 [16]: > 100 µM (inactive) | GI50 [17]: 59 µM (inactive) | GI50 [18]: 41.4 µM (inactive) | GI50 [19]: 39.2 µM (inactive) | GI50 [20]: 60.7 µM (inactive) | GI50 [21]: 61.7 µM (inactive) | GI50 [22]: 20.7 µM (inactive) | GI50 [55]: 16 µM (inactive) | GI50 [23]: 49.1 µM (inactive) | GI50 [24]: 19.8 µM (inactive) | GI50 [58]: 40.6 µM (inactive) | GI50 [25]: 37.8 µM (inactive) | GI50 [26]: 33 µM (inactive) | GI50 [27]: 12.6 µM (inactive) | GI50 [28]: 19 µM (inactive) | GI50 [29]: 14.3 µM (inactive) | GI50 [30]: 71.1 µM (inactive) | GI50 [31]: 32.8 µM (inactive) | GI50 [32]: 14 µM (inactive) | GI50 [33]: 34.9 µM (inactive) | GI50 [56]: 39.8 µM (inactive) | GI50 [34]: 30.4 µM (inactive) | GI50 [35]: 14.6 µM (inactive) | GI50 [36]: 37.8 µM (inactive) | GI50 [37]: > 100 µM (inactive) | GI50 [38]: 16.3 µM (inactive) | GI50 [39]: > 100 µM (inactive) | GI50 [57]: 40 µM (inactive) | GI50 [40]: 36.8 µM (inactive) | GI50 [41]: 28.6 µM (inactive) | GI50 [42]: 16.9 µM (inactive) | GI50 [43]: 30.3 µM (inactive) | GI50 [44]: 15.3 µM (inactive) | GI50 [45]: 31.5 µM (inactive) | GI50 [46]: > 100 µM (inactive) | GI50 [47]: > 100 µM (inactive) | GI50 [49]: 59.8 µM (inactive) | GI50 [50]: 22.8 µM (inactive) | GI50 [51]: > 100 µM (inactive)

— ChEMBL document CHEMBL1201862, “PubChem BioAssay data set” (2004)
